The text below walks through data of ChEMBL document CHEMBL4507327 (2021).

Experiment [1] deals with Serine/threonine-protein kinase LATS1 (Homo sapiens, UniProt O95835). Nature of the experiment: LATS1(LAT1LGRJ) Takeda global kinase panel.
The target in experiment [2] is Muscarinic acetylcholine receptor M4 (Homo sapiens) (UniProt P08173). As to conditions: Compound concentration 10.0 uM.
Experiment [3] has as its target Alpha-2A adrenergic receptor (Homo sapiens) (UniProt P08913). As to conditions: Compound concentration 10.0 uM.
Experiment [4] concerns the target 5-hydroxytryptamine receptor 2C (Homo sapiens) (UniProt P28335). As to conditions: Compound concentration 10.0 uM.
The target of experiment [5] is Beta-2 adrenergic receptor (Homo sapiens) (UniProt P07550). The conditions noted are these: Compound concentration 10.0 uM.
Experiment [6] has as its target T1, 5-hydroxytryptamine receptor 3A (Homo sapiens) (UniProt P46098).
T1 sequence (whole entry): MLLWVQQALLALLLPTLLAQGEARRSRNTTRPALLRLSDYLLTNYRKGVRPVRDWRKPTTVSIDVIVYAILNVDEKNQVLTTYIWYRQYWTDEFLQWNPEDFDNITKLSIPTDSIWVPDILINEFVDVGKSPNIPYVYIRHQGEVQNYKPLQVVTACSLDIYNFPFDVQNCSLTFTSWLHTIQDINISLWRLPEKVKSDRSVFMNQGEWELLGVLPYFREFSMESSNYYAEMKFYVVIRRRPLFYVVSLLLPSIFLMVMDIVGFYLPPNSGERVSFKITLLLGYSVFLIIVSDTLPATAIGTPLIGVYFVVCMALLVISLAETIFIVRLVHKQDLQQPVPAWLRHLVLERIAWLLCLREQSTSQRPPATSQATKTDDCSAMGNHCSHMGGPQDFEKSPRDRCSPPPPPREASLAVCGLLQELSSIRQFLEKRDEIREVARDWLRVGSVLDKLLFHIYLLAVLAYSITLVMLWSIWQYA
As to conditions: Compound concentration 10.0 uM.

The species entered for the next experiment is Rattus norvegicus. Nature of the experiment: Inhibition of Imidazoline I2, Central at 10 µM in the Eurofins-Panlabs radioligand binding assay (Eurofins_assay_241000). As to conditions: Compound concentration 10.0 uM. Details: ligand concentration 2 nM.
Experiment [7] concerns the target Muscarinic acetylcholine receptor M5 (Homo sapiens) (UniProt P08912). As to conditions: Compound concentration 10.0 uM.
The target in experiment [8] is 5-hydroxytryptamine receptor 2A (Homo sapiens) (UniProt P28223). The conditions noted are these: Compound concentration 10.0 uM.
Experiment [9] deals with GABA-A receptor; anion channel (Rattus norvegicus) (UniProt O09028+P15431+P18506+P18508+P19969+P20236+P23574+P23576+P28471+P28473+P30191+P62813+P63079+P63138+Q91ZM7+Q9ES14). As to conditions: Compound concentration 10.0 uM.
Experiment [10] can be described thus: GPCRScan assay: inhibition of GABA/PBR. Set-up: species or system Rattus norvegicus; radioligand conc. used [nm] 0.3 – 2.0, parental cells brain tissue.
Experiment [11] deals with D(3) dopamine receptor (Homo sapiens) (UniProt P35462). As to conditions: Compound concentration 10.0 uM.
Experiment [12] has as its target Serine/threonine-protein kinase Nek8 (Homo sapiens, UniProt Q86SG6). Nature of the experiment: Nek8(NEK8LGRI) Takeda global kinase panel.
The target of experiment [13] is T2, Alpha-1A adrenergic receptor (Homo sapiens) (UniProt P35348).
T2 sequence (whole entry): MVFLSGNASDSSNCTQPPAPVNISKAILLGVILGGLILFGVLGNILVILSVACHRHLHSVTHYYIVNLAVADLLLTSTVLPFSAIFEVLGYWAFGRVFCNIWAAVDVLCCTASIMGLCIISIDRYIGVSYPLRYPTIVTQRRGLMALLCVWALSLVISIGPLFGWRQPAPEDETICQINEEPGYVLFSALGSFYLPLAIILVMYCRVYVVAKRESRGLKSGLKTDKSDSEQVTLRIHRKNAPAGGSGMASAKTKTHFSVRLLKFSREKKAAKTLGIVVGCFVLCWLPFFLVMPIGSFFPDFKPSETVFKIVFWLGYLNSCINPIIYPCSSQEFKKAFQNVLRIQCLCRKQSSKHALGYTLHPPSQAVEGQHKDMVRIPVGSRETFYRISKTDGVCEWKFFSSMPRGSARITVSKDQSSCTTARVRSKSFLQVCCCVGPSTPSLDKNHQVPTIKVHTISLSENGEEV
As to conditions: Compound concentration 10.0 uM.

Experiment [14] deals with 5-hydroxytryptamine receptor 2B (Homo sapiens) (UniProt P41595). As to conditions: Compound concentration 10.0 uM.
For experiment [15], the target named is Alpha-2C adrenergic receptor (Homo sapiens) (UniProt P18825). As to conditions: Compound concentration 10.0 uM.
In experiment [16] the target is T3, 5-hydroxytryptamine receptor 1A (Homo sapiens) (UniProt P08908).
T3 sequence (whole entry): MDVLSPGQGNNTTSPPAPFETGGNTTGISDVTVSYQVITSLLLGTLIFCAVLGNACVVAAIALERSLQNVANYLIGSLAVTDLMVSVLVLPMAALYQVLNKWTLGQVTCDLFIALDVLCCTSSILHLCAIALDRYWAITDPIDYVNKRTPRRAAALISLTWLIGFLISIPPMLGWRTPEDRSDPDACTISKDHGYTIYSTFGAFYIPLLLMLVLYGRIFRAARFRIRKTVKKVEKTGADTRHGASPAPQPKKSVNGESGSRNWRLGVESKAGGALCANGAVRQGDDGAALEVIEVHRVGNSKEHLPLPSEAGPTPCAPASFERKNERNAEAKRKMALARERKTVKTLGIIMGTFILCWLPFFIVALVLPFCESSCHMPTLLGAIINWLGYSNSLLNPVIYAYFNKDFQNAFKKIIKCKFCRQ
As to conditions: Compound concentration 10.0 uM.

In experiment [17] the target is Serine/threonine-protein kinase 38 (Homo sapiens, UniProt Q15208). Nature of the experiment: NDR1(ST38LGF1) Takeda global kinase panel.
Experiment [18] concerns the target Serine/threonine-protein kinase TAO1 (Homo sapiens, UniProt Q7L7X3). Nature of the experiment: TAO1(TAO1LGF1) Takeda global kinase panel.
Experiment [19] has as its target 5'-AMP-activated protein kinase catalytic subunit alpha-1 (Homo sapiens, UniProt Q13131). Nature of the experiment: AMPKalpha1(PRA1PGF1) Takeda global kinase panel.
Experiment [20] deals with RAC-alpha serine/threonine-protein kinase (Homo sapiens, UniProt P31749). The experiment can be described thus: Akt1 [PKBalpha(AKT1PHFB)] Takeda global kinase panel.
The target of experiment [21] is cGMP-dependent protein kinase 1 (Homo sapiens, UniProt Q13976). Nature of the experiment: PKG1(PRG1LFP1) Takeda global kinase panel.
The target in experiment [22] is Calcium/calmodulin-dependent protein kinase type II subunit alpha (Homo sapiens, UniProt Q9UQM7). Nature of the experiment: CaMK2alpha(CA2ACGT1) Takeda global kinase panel.
Experiment [23] addresses Receptor-interacting serine/threonine-protein kinase 4 (Homo sapiens, UniProt P57078). The experiment can be described thus: ANKRD3(RIP4LGN1) Takeda global kinase panel.
The target of experiment [24] is Tyrosine-protein kinase Fyn (Homo sapiens, UniProt P06241). Nature of the experiment: Fyn(FYN1LGF5) Takeda global kinase panel.
For experiment [25], the target named is Fibroblast growth factor receptor 2 (Homo sapiens, UniProt P21802). The experiment can be described thus: FGFR2(FGF2LGF1) Takeda global kinase panel.

Sequence of Alpha-2A adrenergic receptor (Homo sapiens) (P08913 whole entry): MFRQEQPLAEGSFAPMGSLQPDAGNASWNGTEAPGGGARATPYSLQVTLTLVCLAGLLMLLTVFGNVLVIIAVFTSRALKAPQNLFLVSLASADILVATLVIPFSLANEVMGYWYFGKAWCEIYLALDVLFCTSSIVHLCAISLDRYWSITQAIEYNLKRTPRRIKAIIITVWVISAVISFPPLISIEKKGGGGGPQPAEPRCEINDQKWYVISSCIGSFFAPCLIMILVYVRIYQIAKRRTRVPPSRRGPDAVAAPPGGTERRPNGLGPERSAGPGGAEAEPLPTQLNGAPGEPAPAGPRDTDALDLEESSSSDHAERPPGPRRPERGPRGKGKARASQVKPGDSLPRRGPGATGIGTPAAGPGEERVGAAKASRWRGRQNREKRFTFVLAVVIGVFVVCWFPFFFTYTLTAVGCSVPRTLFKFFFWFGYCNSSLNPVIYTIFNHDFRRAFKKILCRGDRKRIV
Sequence of Receptor-interacting serine/threonine-protein kinase 4 (P57078 whole entry): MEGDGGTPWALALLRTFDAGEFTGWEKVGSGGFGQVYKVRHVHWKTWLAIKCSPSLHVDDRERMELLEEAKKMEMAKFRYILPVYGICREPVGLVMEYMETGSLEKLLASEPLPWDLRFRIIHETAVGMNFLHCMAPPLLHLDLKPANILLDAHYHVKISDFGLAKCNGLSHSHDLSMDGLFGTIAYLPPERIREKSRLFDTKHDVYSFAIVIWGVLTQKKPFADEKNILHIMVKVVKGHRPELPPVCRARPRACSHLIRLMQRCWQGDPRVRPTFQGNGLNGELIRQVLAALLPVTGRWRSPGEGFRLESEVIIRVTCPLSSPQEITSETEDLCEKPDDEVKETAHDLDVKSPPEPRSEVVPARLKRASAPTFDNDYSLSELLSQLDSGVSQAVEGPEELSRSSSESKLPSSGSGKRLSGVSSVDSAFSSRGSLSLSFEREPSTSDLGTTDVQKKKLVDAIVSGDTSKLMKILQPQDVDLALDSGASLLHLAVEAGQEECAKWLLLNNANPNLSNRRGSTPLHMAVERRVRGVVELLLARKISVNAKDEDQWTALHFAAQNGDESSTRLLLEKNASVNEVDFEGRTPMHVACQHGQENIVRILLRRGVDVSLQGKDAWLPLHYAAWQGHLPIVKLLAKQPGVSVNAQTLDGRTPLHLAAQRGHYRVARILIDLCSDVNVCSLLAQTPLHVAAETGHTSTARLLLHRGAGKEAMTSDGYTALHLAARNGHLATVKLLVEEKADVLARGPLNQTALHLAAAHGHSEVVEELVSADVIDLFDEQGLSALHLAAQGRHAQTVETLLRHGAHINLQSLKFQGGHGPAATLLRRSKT
Sequence of Muscarinic acetylcholine receptor M4 (Homo sapiens) (P08173 whole entry): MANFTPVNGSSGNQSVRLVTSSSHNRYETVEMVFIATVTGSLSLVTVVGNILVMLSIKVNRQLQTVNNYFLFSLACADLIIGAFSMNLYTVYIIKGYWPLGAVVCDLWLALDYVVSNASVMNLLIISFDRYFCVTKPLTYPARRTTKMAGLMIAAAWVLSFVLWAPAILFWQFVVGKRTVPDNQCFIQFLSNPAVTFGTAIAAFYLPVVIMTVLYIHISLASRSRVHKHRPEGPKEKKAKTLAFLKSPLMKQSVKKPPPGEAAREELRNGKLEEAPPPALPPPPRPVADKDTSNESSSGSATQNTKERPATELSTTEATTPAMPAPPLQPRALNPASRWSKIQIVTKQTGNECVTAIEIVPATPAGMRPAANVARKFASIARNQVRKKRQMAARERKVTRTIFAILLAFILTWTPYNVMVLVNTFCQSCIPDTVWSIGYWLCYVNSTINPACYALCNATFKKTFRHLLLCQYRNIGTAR
Sequence of Beta-2 adrenergic receptor (Homo sapiens) (P07550 whole entry, looked up): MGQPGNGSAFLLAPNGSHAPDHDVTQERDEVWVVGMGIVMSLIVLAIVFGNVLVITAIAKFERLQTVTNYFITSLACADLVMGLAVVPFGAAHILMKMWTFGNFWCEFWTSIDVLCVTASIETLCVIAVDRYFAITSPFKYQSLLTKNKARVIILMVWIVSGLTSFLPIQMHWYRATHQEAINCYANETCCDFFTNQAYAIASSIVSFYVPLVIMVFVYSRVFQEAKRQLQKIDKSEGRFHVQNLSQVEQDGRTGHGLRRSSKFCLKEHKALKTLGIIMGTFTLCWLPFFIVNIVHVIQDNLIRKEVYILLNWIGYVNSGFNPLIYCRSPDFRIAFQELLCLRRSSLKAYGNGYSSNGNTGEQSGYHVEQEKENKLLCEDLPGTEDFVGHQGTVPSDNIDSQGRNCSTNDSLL
Sequence of 5'-AMP-activated protein kinase catalytic subunit alpha-1 (Q13131 whole entry): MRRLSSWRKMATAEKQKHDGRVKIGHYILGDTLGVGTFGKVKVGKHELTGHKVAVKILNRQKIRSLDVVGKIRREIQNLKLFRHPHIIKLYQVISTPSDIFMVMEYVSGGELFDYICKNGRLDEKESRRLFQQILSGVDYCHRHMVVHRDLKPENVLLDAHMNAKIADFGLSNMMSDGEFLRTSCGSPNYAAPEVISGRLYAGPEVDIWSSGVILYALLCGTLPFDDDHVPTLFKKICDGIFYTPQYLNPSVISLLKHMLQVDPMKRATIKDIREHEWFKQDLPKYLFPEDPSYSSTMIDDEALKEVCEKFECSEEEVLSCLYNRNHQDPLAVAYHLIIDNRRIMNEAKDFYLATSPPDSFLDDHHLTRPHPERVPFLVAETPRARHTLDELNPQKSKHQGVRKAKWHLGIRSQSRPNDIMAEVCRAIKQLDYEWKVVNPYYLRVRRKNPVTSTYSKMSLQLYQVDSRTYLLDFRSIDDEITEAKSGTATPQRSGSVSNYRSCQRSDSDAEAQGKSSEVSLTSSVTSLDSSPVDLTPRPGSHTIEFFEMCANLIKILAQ
Sequence of Serine/threonine-protein kinase TAO1 (Q7L7X3 whole entry): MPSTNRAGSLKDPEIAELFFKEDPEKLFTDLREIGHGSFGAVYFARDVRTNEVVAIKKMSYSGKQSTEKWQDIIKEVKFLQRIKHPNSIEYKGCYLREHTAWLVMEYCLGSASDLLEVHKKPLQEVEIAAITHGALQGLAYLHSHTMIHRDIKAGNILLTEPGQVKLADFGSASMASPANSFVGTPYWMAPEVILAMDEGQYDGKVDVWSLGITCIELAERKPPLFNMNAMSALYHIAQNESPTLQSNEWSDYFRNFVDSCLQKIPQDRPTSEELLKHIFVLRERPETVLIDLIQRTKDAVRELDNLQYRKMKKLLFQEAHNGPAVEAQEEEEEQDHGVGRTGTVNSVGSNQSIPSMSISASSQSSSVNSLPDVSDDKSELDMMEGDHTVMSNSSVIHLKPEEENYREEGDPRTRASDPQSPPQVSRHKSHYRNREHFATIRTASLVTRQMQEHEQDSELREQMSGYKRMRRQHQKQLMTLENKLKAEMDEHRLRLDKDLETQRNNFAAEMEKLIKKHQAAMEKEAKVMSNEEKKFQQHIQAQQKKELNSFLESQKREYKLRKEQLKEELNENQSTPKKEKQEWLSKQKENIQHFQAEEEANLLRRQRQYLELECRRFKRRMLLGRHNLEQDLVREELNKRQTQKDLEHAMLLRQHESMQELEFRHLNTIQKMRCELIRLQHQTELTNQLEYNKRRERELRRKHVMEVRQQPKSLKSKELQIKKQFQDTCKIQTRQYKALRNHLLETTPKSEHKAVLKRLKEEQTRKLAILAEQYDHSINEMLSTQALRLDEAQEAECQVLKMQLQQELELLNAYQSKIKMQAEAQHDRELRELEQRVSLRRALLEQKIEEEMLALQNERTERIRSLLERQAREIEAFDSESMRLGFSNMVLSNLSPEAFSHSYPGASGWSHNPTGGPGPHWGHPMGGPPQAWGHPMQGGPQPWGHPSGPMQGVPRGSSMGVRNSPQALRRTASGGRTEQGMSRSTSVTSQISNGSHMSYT
Sequence of Tyrosine-protein kinase Fyn (P06241 whole entry): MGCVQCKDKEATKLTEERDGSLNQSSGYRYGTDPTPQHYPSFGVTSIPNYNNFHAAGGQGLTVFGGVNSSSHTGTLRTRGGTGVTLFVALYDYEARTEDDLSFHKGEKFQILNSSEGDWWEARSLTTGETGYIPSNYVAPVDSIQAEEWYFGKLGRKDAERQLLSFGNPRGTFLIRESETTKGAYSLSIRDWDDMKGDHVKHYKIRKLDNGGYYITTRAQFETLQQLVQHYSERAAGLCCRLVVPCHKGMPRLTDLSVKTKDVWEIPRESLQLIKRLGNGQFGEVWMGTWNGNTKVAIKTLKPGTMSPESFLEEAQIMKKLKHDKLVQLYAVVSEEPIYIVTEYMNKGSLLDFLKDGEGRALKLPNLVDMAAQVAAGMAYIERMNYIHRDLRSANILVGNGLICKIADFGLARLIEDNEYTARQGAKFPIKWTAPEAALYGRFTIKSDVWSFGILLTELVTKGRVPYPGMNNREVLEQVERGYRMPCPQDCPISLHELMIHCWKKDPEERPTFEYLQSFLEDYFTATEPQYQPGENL
Sequence of Muscarinic acetylcholine receptor M5 (Homo sapiens) (P08912 whole entry): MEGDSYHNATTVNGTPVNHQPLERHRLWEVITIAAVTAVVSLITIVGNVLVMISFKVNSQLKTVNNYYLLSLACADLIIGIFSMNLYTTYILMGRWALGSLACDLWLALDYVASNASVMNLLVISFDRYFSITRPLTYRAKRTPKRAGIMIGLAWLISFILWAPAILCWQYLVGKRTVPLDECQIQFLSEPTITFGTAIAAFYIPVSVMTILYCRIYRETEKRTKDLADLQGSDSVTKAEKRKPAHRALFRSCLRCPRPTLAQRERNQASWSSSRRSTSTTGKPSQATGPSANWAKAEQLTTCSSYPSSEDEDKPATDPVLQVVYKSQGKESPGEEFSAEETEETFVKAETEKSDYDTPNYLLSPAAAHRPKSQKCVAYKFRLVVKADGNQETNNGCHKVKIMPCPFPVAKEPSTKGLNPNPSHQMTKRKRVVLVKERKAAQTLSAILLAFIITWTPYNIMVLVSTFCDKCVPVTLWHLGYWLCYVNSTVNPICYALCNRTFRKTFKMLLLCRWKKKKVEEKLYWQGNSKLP

Turning to `CN1C(=O)[C@@H](N2CCc3cn(Cc4ccccc4)nc3C2=O)COc2ccccc21` [TP-030-1], the IC50 in experiment [1] and in [12] was 1000 nM throughout. In addition, the inhibition (as a rule, the drop in the measured response relative to a control, in per cent) was 8.56% in experiment [2]; 7% in experiment [3]; -2.89% in experiment [4]; 9.59% in experiment [5]; 40.8% in [6]; 6% in the experiment listed under Rattus norvegicus. Moreover, the inhibition was 6.63% in experiment [7]; 3.8% in experiment [8]; 10.5% in experiment [9]; -4.81% in [11]; -0.5% in experiment [13]; 12% in experiment [14]. Besides, the values for the inhibition in [15] and in experiment [16] were 34.7% and 5.07%, respectively. Besides, in [10], the Ki (as a rule, a dissociation constant, usually derived from enzyme kinetics or from competition with a known ligand) was determined as 375 nM. The pKi (commonly the negative decadic logarithm of the Ki, by convention in mol/L) in [10] was found to be 6.425.
As to `CN1C(=O)[C@@H](N2CCc3cn(CC4CCS(=O)(=O)CC4)nc3C2=O)COc2ccccc21` [TP-030n], the IC50 in [17], in experiment [18], in experiment [19], in experiment [20], in experiment [21] and in experiment [22] was 1000 nM in each case. Further, the IC50 in experiment [23], in [24] and in [25] was 1000 nM each time.
